Results on three molecules are retold here after US20130269045A1, “HB-EGF DEFICIENT TRANSGENIC ANIMAL AND PRODUCTION METHOD THEREOF” (Nagasaki University, priority 2012, published 2013).

Holding throughout (assay type): in vivo
The test system of test [1] is HB-EGF deficient type TG mouse. As to the kind of experiment: Nest-building test (social behavior, interest and consideration for the surrounding environment). The settings on record: 1 mg/kg i.p. once a day for 7 days; for state of the nest: collecting the cotton in one place and making the nest: FIG. 16(a); for rating on 5-point scale for the state of the nest: score criteria 1-5 (5 = almost perfect nest), FIG. 16(b); for amount of the cotton that was not used for the nest-building: Nestlet 2.5 g provided, FIG. 16(c). On the procedure: The nest-building test was carried out in accordance with the following processes. First, from one hour before the darkness period (19:00) of the light and darkness cycle (light period 8:00 to 20:00/darkness period 20:00 to 8:00), each mouse was reared alone in a new cage, and provided with Nestlet (2.5 g) that is a material for the nest-building. During the darkness period 20:00 to 8:00, each mouse acted freely, in the next morning the nest shape that was made by each mouse was scored on 5-point scale, and the unused Nestlet amount was measured. The score was determined by the following criteria.
1: 90% of the Nestlet was unused.
2: the Nestlet was slightly used, however, 50 to 90% of the Nestlet was left unused.
3: 50 to 90% of the Nestlet was torn off finely, and the shape was not maintained as the nest.
5: 90% or more of the Nestlet was torn off finely, and used as a material of the nest, the nest was dug into a crater-like shape, and the (almost) perfect nest that buries the whole body of the mouse when viewed from the side was confirmed.
(§1) As the therapeutic agent, three drugs of atomoxetine (1 mg/kg), nefiracetam (1 mg/kg), and SA4503 (1 mg/kg) were used independently to administer into the abdominal cavity once a day for 7 days in a row. As a control of the therapeutic agent, saline was administered into the abdominal cavity once a day for 7 days in a row.

In test [2] the test system is HB-EGF deficient type TG mouse. As to the kind of experiment: Cylindrical platform test (impulsivity), ratio of mice remained on the platform. The settings on record: for impulsivity (conclusion in words): HB-EGF deficient type TG mouse, 1 mg/kg i.p. once a day for 7 days; for ratio of the mice that were remained on the platform: HB-EGF deficient type mouse, 1 mg/kg into the abdominal cavity once a day for 7 days, column height 20 cm, diameter 10 cm, untreated TG only 20%, non-deficient 80% or more. Here is the method:
Further, the behavior of each mouse of the descending from the top of the platform to the floor was observed by classifying into the positive performing (=jumped down from the head) and the negative performing (=fall off from the tail).
as §1
In the mouse in which HB-EGF is not deficient, 80% or more of the mice were remained on the platform. On the other hand, in the HB-EGF deficient type mouse, only 20% of the mice were remained on the platform. However, in the case of administering atomoxetine to the HB-EGF deficient type mouse, 50% or more of the mice were remained on the platform. Further, in the case of administering nefiracetam to the HB-EGF deficient type mouse, 70% or more of the mice were remained on the platform.

Test [3] deals with HB-EGF deficient type TG mouse. Briefly: Marble-burying behavior test (obsessive-compulsive disorder related anxiety-like behavior). As to conditions: 1 mg/kg i.p. once a day for 7 days; for number of the marbles that were buried: 25 marbles, 30 minutes, saline group: large, FIG. 17. Here is the method:
The marble-burying behavior test was carried out in accordance with the following processes. First, in a cage in which bedding was carpeted in around 5 cm depth, 25 blue-colored marbles with 17 mm were equally arranged, and the marble-burying behavior of each mouse were measured for 30 minutes. After a lapse of 30 minutes, when observed from straight above, the marbles those were buried two-thirds or more thereof with bedding were counted. Further, the acting amount of burying marbles was determined by SCANET. In the marble-burying behavior test, the more the number of marbles that buried after the test, the more the anxiety-like behavior enhanced.
as §1

Regarding `CNCC[C@@H](Oc1ccccc1C)c1ccccc1` [atomoxetine], in test [1], the “state of the nest: collecting the cotton in one place and making the nest” value (shortened to “state of the nest: collecting the cotton”) was “could not collect the cotton in one place and could not make the nest”; the “rating on 5-point scale for the state of the nest” value (“rating on 5-point scale” below) is not above 3. Also, in test [2], the “impulsivity (conclusion in words)” value is given as “the impulsivity was suppressed” and the “ratio of the mice that were remained on the platform” value is given as not below 50%. Besides, the “number of the marbles that were buried” value in test [3] is on record as “the same level as that of the HB-EGF deficient type TG mouse into which saline had been administered”.

For `Cc1cccc(C)c1NC(=O)CN1CCCC1=O` [nefiracetam], in test [1], the “social behavior, interest and consideration for the surrounding environment (conclusion in words)” value is “improved the social behavior, and the interest and consideration for the surrounding environment”; the “state of the nest: collecting the cotton” value was “could collect the cotton in one place and could make the nest”; the “amount of the cotton that was not used for the nest-building” value is given as “around 0.1 g”; the “rating on 5-point scale” value is given as 5. For the same molecule, in test [2], the “impulsivity (conclusion in words)” value was “the impulsivity was suppressed” and the “ratio of the mice that were remained on the platform” value is reported as not below 70%. Further, in test [3], the “anxiety-like behavior related to obsessive-compulsive disorder (conclusion in words)” value is on record as “the anxiety-like behavior related to obsessive-compulsive disorder was decreased” and the “number of the marbles that were buried” value is “small”.

On to `COc1ccc(CCN2CCN(CCCc3ccccc3)CC2)cc1OC` [SA4503], for which, in test [1], the “social behavior, interest and consideration for the surrounding environment (conclusion in words)” value was “improved the social behavior, and the interest and consideration for the surrounding environment”; the “state of the nest: collecting the cotton” value is “could collect the cotton in one place and could make the nest”; the “amount of the cotton that was not used for the nest-building” value was “around 0.1 g”; the “rating on 5-point scale” value is on record as 5. The “number of the marbles that were buried” value in test [3] was “the same level as that of the HB-EGF deficient type TG mouse into which saline had been administered”.
